“And” between values parts separate entries of the source, which are not always exact repeats. Equal values may be shown once.
Test: solvent given as SMILES

## c1ccc2c(-c3ccc(-n4c5ccccc5c5ccccc54)cc3)c3c(nc2c1)-c1cc2c(cc1CC3)-c1nc3ccccc3c(-c3ccc(-n4c5ccccc5c5ccccc54)cc3)c1CC2
In ClC(Cl)Cl
  absorption maximum: 377 nm

## N#Cc1cc2ccc(O)cc2oc1=O
In C1CCCCC1
  absorption maximum: 361 nm
In C1CCOC1
  absorption maximum: 355 nm
In CC#N
  absorption maximum: 352 nm
In CCOC(C)=O
  absorption maximum: 356 nm
In CS(C)=O
  absorption maximum: 351 nm
In ClC(Cl)Cl
  absorption maximum: 359 nm
In O
  absorption maximum: 355 nm

## CC(C)(C)c1cc(-c2cc3c(cc(-c4cc(C(C)(C)C)cc(C(C)(C)C)c4)n3-c3ccc(C(=C(c4ccccc4)c4ccccc4)c4ccccc4)cc3)n2-c2ccc(C(=C(c3ccccc3)c3ccccc3)c3ccccc3)cc2)cc(C(C)(C)C)c1
In ClCCl
  absorption maximum: 337 nm

## N#C/C(=C\c1ccc(C#N)cc1)c1nc(-c2ccccc2)c(-c2ccccc2)s1
In CC#N
  absorption maximum: 379 nm

## Cc1ccccc1C1=C2C=c3c(oc4c3ccc3ccccc34)=[N+]2[B-](F)(F)n2c1cc1c3ccc4ccccc4c3oc12
In C1CCCCC1
  absorption maximum: 613 nm
In CCOC(C)=O
  absorption maximum: 607 nm
In CO
  absorption maximum: 605.5 nm

## CCCCCCOc1ccc(N(c2ccc(OCCCCCC)cc2)c2ccc(-c3sc(-c4ccc(N(c5ccc(OCCCCCC)cc5)c5ccc(OCCCCCC)cc5)cc4)c4nc(-c5ccccc5)c(-c5ccccc5)nc34)cc2)cc1
In C1CCOC1
  absorption maximum: 601 nm
In CC(C)=O
  absorption maximum: 592 nm
In CCOC(C)=O
  absorption maximum: 594 nm
In CCOCC
  absorption maximum: 600 nm
In CN(C)C=O
  absorption maximum: 598 nm
In Cc1ccccc1
  absorption maximum: 600 nm
In ClC(Cl)Cl
  absorption maximum: 601 nm
In ClCCl
  absorption maximum: 600 nm

## CCCCCCn1c2cc(/C=C/c3cccs3)ccc2c2ccc(/C=C/c3cccs3)cc21
In ClC(Cl)Cl
  absorption maximum: 408.16 nm

## O=c1c2cc(F)ccc2nc2n1[B-](F)(F)[n+]1ccccc1-2
In CC#N
  absorption maximum: 337 nm
In ClCCl
  absorption maximum: 350 nm

## Brc1ccc(-c2nc3sc4ccccc4c3s2)cc1
In CS(C)=O
  absorption maximum: 353 nm

## COc1ccc(C#Cc2c3cc4ccccc4cc3c(C#Cc3ccc(OC)cc3)c3cc4sc(C)cc4cc23)cc1
In ClCCl
  absorption maximum: 615 nm

## Nc1ccc2c(-c3ccc(C(=O)CN4C(=O)CCC4=O)cc3C(=O)[O-])c3ccc(=[NH2+])c(S(=O)(=O)[O-])c-3oc2c1S(=O)(=O)[O-]
In O
  absorption maximum: 494 nm

## CC(C)(C)c1ccc2c(c1)c1cc(C(C)(C)C)ccc1n2-c1ccc(-c2nc3c(C#N)ccc(C#N)c3nc2-c2ccc(-n3c4ccc(C(C)(C)C)cc4c4cc(C(C)(C)C)ccc43)cc2)cc1
In Cc1ccccc1
  absorption maximum: 467 nm

## CCCCCCCCCCCCN1C(=O)c2ccc3c4ccc5c6c(ccc(c7ccc(c2c37)C1=O)c64)C(=O)N(CCCCCCCCCCCC)C5=O
In CN(C)C=O
  absorption maximum: 523 nm

## O=c1cc(-c2ccccc2)oc(-c2nc3ccccn3c2NC2CCCCC2)c1
In ClCCl
  absorption maximum: 353 nm

## O=[N+]([O-])c1ccc(C#Cc2ccc3ccccc3c2)cc1
In ClC(Cl)Cl
  absorption maximum: 338 nm
In ClCCl
  absorption maximum: 339 nm

## Cc1cc(-c2nc(-c3ccccc3)nc(-c3ccccc3)n2)cc(C)c1N1c2ccccc2CCc2ccccc21
In Cc1ccccc1
  absorption maximum: 392.74 nm

## CCN(CC)c1cc(F)c(C(=O)c2cc(F)c(F)cc2F)cc1F
In CCO
  absorption maximum: 361 nm

## CC1=CC(C)=[N+]2C1=C(c1ccc(N3CCCCC3)cc1)c1c(C)cc(C)n1[B-]2(F)F
In C1CCOC1
  absorption maximum: 499 nm
In CC#N
  absorption maximum: 496 nm
In CC(=O)C(C)(C)C
  absorption maximum: 496 nm
In CC(C)=O
  absorption maximum: 495 nm
In CCCCCC
  absorption maximum: 500 nm
In CCOC(C)=O
  absorption maximum: 498 nm
In CO
  absorption maximum: 500 nm and 497 nm

## CCC1=C(C)C2=C(/C=C/c3ccc([N+](=O)[O-])cc3)c3c(C)c(CC)c(/C=C/c4ccc(OC)cc4)n3[B-](F)(F)[N+]2=C1/C=C/c1ccc(OC)cc1
In ClCCl
  absorption maximum: 666 nm

## COc1ccc(-c2oc3cccc4c5c(-c6ccc(OC)cc6)c(=N)oc6cccc(c2c34)c65)cc1
In ClC(Cl)Cl
  absorption maximum: 408 nm

## COc1ccc(-c2cnc3nn4ccccc4c3c2)cc1
In C1CCOC1
  absorption maximum: 386 nm

## CCCCCCCCN1C(=O)c2ccc3c4c(-c5ccc6c(c5)c5ccccc5n6-c5ccccc5)cc5c6c(cc(-c7ccc8c(c7)c7ccccc7n8-c7ccccc7)c(c7ccc(c2c37)C1=O)c64)C(=O)N(CCCCCCCC)C5=O
In ClC(Cl)Cl
  absorption maximum: 563 nm

## Cc1cccc(C)c1-c1cc2c(C)c3c4cc5nc6ccc7c8c(C)c9cc(-c%10c(C)cccc%10C)c(-c%10c(C)cccc%10C)cc9c(C)c8c7c6nc5cc4c3c(C)c2cc1-c1c(C)cccc1C
In ClC(Cl)Cl
  absorption maximum: 487 nm

## COC(=O)C(Cc1ccc2oc(-c3ccc(-n4c5ccccc5c5ccccc54)cc3)nc2c1)NC(=O)OC(C)(C)C (stereo unspecified)
In C1CCCCC1
  absorption maximum: 340 nm
In C1CCOC1
  absorption maximum: 341.8 nm
In C1COCCO1
  absorption maximum: 341.4 nm
In CC1CCCO1
  absorption maximum: 341.41 nm
In CC#N
  absorption maximum: 340 nm
In CC(C)(C)O
  absorption maximum: 341.8 nm
In CC(C)=O
  absorption maximum: 340.7 nm
In CC(C)CC(C)(C)C
  absorption maximum: 339.9 nm
In CC(C)O
  absorption maximum: 340.48 nm
In CC(O)CO
  absorption maximum: 342.3 nm
In CCCCCCCO
  absorption maximum: 342.5 nm
In CCCCCCO
  absorption maximum: 342.59 nm
In CCCCCO
  absorption maximum: 340.8 nm
In CCCCO
  absorption maximum: 341.8 nm
In CCO
  absorption maximum: 340.48 nm
In CCOC(C)=O
  absorption maximum: 340.02 nm
In CCOCC
  absorption maximum: 339.6 nm
In CN(C)C=O
  absorption maximum: 342.11 nm
In CO
  absorption maximum: 339.7 nm
In CS(C)=O
  absorption maximum: 343.6 nm
In Cc1ccccc1
  absorption maximum: 342.61 nm
In OCCO
  absorption maximum: 343.21 nm

## O=Cc1cc(O)ccc1O
In C1CCOC1
  absorption maximum: 366 nm
In C1COCCO1
  absorption maximum: 363 nm
In CC#N
  absorption maximum: 362 nm
In CC(C)=O
  absorption maximum: 364 nm
In CCCO
  absorption maximum: 367 nm
In CCO
  absorption maximum: 367 nm
In CN(C)C=O
  absorption maximum: 365 nm
In CN(C)P(=O)(N(C)C)N(C)C
  absorption maximum: 369 nm
In CNC=O
  absorption maximum: 358 nm
In CO
  absorption maximum: 364 nm
In CS(C)=O
  absorption maximum: 366 nm
In ClC(Cl)Cl
  absorption maximum: 362 nm
In NC=O
  absorption maximum: 363 nm

## CN(C)c1ccc(/C=C/c2ccc(-c3nnc(-c4ccc(-c5cc6ccccc6s5)cc4)o3)cc2)cc1
In CC#N
  absorption maximum: 334 nm
In CC(C)=O
  absorption maximum: 337 nm
In CCCCCCCC
  absorption maximum: 334 nm
In CCCCCCCCCCO
  absorption maximum: 344 nm
In CCCCCCCCO
  absorption maximum: 343 nm
In CCCCCO
  absorption maximum: 341 nm
In CCCO
  absorption maximum: 341 nm
In CN(C)C=O
  absorption maximum: 338 nm
In CO
  absorption maximum: 335 nm
In CS(C)=O
  absorption maximum: 340 nm

## CC(C)(C)NC(=O)c1cc2ccc3cccc4ccc(c1C(=O)NC(C)(C)C)c2c34
In ClC(Cl)Cl
  absorption maximum: 385 nm

## COc1ccc2c(c1)c1cc(OC)ccc1c1c2c2c(C(=O)NC(C)(C)C)ccc(C(=O)NC(C)(C)C)c2c2c3ccc(OC)cc3c3cc(OC)ccc3c21
In ClCCl
  absorption maximum: 414 nm

## [O-]c1c(-c2nc3ccccc3s2)cc2ccc3cccc4ccc1c2c34
In CC#N
  absorption maximum: 514 nm
In CS(C)=O
  absorption maximum: 524 nm

## CC(C)CN1C(=O)/C(=C/c2ccc(C#N)cc2)C=C1c1ccccc1
In C1COCCO1
  absorption maximum: 440 nm

## CN(C)c1ccc2nc(-c3ccc(C(=O)OC(C)(C)C)cc3)sc2c1
In C1CCCCC1
  absorption maximum: 384 nm
In CC#N
  absorption maximum: 390 nm
In CC(C)O
  absorption maximum: 392 nm
In CO
  absorption maximum: 393 nm
In CS(C)=O
  absorption maximum: 403 nm
In ClC(Cl)Cl
  absorption maximum: 392 nm
In c1ccccc1
  absorption maximum: 392 nm

## Cc1cccc(C)c1N1C(c2ccccc2)=Cc2ccc3ccccc3[n+]2[B-]1(F)F
In ClCCl
  absorption maximum: 447 nm

## F[B-]1(F)Oc2c(-c3cccc4c3O[B-](F)(F)[n+]3c(-c5ccccc5)c(-c5ccccc5)n(-c5ccc(C(F)(F)F)cc5)c3-4)cccc2-c2n(-c3ccc(C(F)(F)F)cc3)c(-c3ccccc3)c(-c3ccccc3)[n+]21
In C1CCOC1
  absorption maximum: 342 nm

## CCCn1c(=O)c(/C=C/c2nc3ccc(C)cc3n(CCC)c2=O)nc2ccc(C)cc21
In C1COCCO1
  absorption maximum: 434 nm
In CC#N
  absorption maximum: 431 nm
In ClCCl
  absorption maximum: 434 nm

## CCCCC(CC)COc1ccc2nc(-c3ccc(-c4c(C)noc4C)s3)sc2c1 (stereo unspecified)
In ClCCl
  absorption maximum: 359 nm

## CCN(CC)c1ccc2cc(-c3ccc(-c4ccc(-c5cc6ccc(N(CC)CC)cc6oc5=O)cc4)cc3)c(=O)oc2c1
In ClCCl
  absorption maximum: 417 nm

## COc1ccc2cc(/C=C/c3nc(/C=C/c4ccc(N(C)C)cc4)cc(/C=C/c4ccc(N(C)C)cc4)n3)ccc2c1
In ClCCl
  absorption maximum: 418 nm

## c1ccc(C2=C(c3ccccc3)[Si](c3ccccc3)(c3ccccc3)c3ccccc32)cc1
In C1CCOC1
  absorption maximum: 330 nm

## c1ccc(-c2cc(-c3ccccc3)cc(-c3ccccc3)c2)cc1
In C1COCCO1
  absorption maximum: 250 nm

## CCCCCOc1cc2oc(=O)c3c4ccc(C#N)cc4c4ccc5cccc6c(c1)c2c3c4c56
In C1CCOC1
  absorption maximum: 426 nm

## Cc1cc(C)c2nc3[nH]c(=O)[nH]c(=O)c3nc2c1
In CC#N
  absorption maximum: 388 nm

## CCN(CC)c1ccc(/C=N/c2ccccc2/N=C/c2ccc(N(CC)CC)cc2O)c(O)c1
In CC#N
  absorption maximum: 442 nm
In CN(C)C=O
  absorption maximum: 490 nm
In ClCCl
  absorption maximum: 442 nm

## N#Cc1nc(N(Cc2ccccc2Cl)Cc2ccccc2Cl)c(C#N)nc1N(Cc1ccccc1Cl)Cc1ccccc1Cl
In ClC(Cl)Cl
  absorption maximum: 485 nm

## CCOC(=O)C1=C(C(=O)OCC)C2(c3ccccc3-c3c(Br)cc(Br)cc32)C2(/C=C/c3ccc(Cl)cc3)c3cc(OC)c(OC)cc3CCN12 (stereo unspecified)
In ClCCl
  absorption maximum: 329 nm

## CCOC(=O)CCOc1ccc(C(c2c(C)[nH]c3ccccc23)c2c(C)[nH]c3ccccc23)cc1OC
In C1CCCCC1
  absorption maximum: 291 nm
In CC#N
  absorption maximum: 289 nm
In CO
  absorption maximum: 289 nm

## COc1ccc(C#Cc2c3ccccc3c3n2[B-](F)(F)[N+]2=C(C)C=C(C)C2=C3)cc1
In CCCCCC
  absorption maximum: 611 nm
In CCCCCCCCO
  absorption maximum: 615 nm
In CCOC(C)=O
  absorption maximum: 610 nm
In CN(C)C=O
  absorption maximum: 615 nm
In ClCCl
  absorption maximum: 616 nm

## Cc1ccccc1-c1c2ccc(=[N+]3CCCCC3)cc-2oc2cc(N3CCCCC3)ccc12
In CCO
  absorption maximum: 564 nm
In ClCCl
  absorption maximum: 565 nm

## CN(C)c1ccc(-c2ccc(-c3cc(-c4ccccc4)c(-c4ccccc4)c(-c4ccccc4)c3-c3ccccc3)s2)cc1
In ClC(Cl)Cl
  absorption maximum: 362 nm
